The results in this text go back to patent US8445489B2, “Aryl ether pyridazinone derivatives” (Merck Patent GmbH, priority 2007, dated 2013).

One test concerns the target T1, Met kinase (Homo sapiens, UniProt P08581).
T1 construct: 6His (N); purchased Upstate 14-526; host or cells: Sf21 insect cells (S. frugiperda), baculovirus
Kind of test: Met kinase inhibition (enzyme assay), flashplate method. It is filed as biochemical. The text has this: According to the manufacturer's data (Met, active, upstate, catalogue No. 14-526), Met kinase is expressed for the purposes of protein production in insect cells (Sf21; S. frugiperda) and subsequent affinity-chromatographic purification as “N-terminal 6His-tagged” recombinant human protein in a baculovirus expression vector.
The test plates used are 96-well Flashplate® microtitre plates from Perkin Elmer (Cat. No. SMP200). The components of the kinase reaction described below are pipetted into the assay plate. The Met kinase and the substrate poly Ala-Glu-Lys-Tyr, (pAGLT, 6:2:5:1), are incubated for 3 hrs at room temperature with radioactively labelled ^33P-ATP in the presence and absence of test substances in a total volume of 100 μl. The reaction is terminated using 150 μl of a 60 mM EDTA solution. After incubation for a further 30 min at room temperature, the supernatants are filtered off with suction, and the wells are washed three times with 200 μl of 0.9% NaCl solution each time. The measurement of the bound radioactivity is carried out by means of a scintillation measuring instrument (Topcount NXT, Perkin-Elmer).
The full value used is the inhibitor-free kinase reaction. This should be approximately in the range 6000-9000 cpm. The pharmacological zero value used is staurosporin in a final concentration of 0.1 mM. The inhibitory values (IC50) are determined using the RS1_MTS program.
Kinase Reaction Conditions Per Well:
10 μl of substance to be tested in assay buffer with 10% of DMSO
10 μl of ATP (final concentration 1 μM cold, 0.35 μCi of ^33P-ATP)
50 μl of Met kinase/substrate mixture in assay buffer;
• (10 ng of enzyme/well, 50 ng of pAGLT/well)
50 mM HEPES • 3 mM magnesium chloride • 3 μM sodium orthovanadate • 3 mM manganese(II) chloride • 1 mM dithiothreitol (DTT) pH=7.5 (to be set using sodium hydroxide)
60 mM Titriplex III (EDTA) • ^33P-ATP: Perkin-Elmer; • Met kinase: Upstate, Cat. No. 14-526, Stock 1 μg/10 μl; spec. activity 954 U/mg; • Poly-Ala-Glu-Lys-Tyr, 6:2:5:1: Sigma Cat. No. P1152 In-Vivo Tests (FIG. 1/1) Experimental Procedure: […]

The next test has as its system TPR-Met/NIH3T3 cells. Put plainly: In-vivo test, TPR-Met/NIH3T3 tumour model in mice. The conditions noted are these: 200 mg/kg daily by gastric tube, 9 days; tumour volume; female Balb/C mice, s.c. TPR-Met/NIH3T3 cells. The procedure:
Female Balb/C mice (breeder: Charles River Wiga) were 5 weeks old on arrival. They were acclimatised to our keeping conditions for 7 days. Each mouse was subsequently injected subcutaneously in the pelvic area with 4 million TPR-Met/NIH3T3 cells in 100 μl of PBS (without Ca++ and Mg++). […] 100 μl of vehicle (0.25% methylcellulose/100 mM acetate buffer, pH 5.5) were administered daily to the control group, and 200 mg/kg of “A56” or “A91” dissolved in the vehicle (volume likewise 100 μl/animal) were administered daily to the treatment groups, in each case by gastric tube.
The length (L) and breadth (B) were measured using a Vernier calliper, and the tumour volume was calculated from the formula L×B×B/2.
4 or 5 animals per cage, feeding with commercial mouse food (Sniff).

Molecules are shown by their SMILES.

T1 sequence (P08581 956-1390 limits assumed): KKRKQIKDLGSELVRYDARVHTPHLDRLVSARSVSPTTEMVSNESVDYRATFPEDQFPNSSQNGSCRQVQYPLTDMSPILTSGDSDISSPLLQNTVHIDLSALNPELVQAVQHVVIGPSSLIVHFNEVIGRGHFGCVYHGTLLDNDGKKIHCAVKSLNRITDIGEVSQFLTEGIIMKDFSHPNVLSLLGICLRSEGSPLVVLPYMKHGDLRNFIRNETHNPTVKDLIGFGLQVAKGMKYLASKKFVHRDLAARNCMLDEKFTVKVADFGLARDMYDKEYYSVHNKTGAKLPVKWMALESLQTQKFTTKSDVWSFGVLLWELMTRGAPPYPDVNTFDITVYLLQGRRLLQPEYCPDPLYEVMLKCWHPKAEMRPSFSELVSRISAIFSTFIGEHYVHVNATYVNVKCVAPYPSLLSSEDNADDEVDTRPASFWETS

On to `CCOC(=O)Nc1cccc(Cn2nc(-c3ccc(OCCO)cc3)ccc2=O)c1` [Compound A9], for which the concentration for half-maximal inhibition (IC50) – broadly, the concentration at which inhibition is half-maximal – against Met kinase fell in the range of 10 to 1000 nM.

Consider `CCOC(=O)Nc1cccc(Cn2nc(-c3cccc(OCCNC(=O)OC(C)(C)C)c3)ccc2=O)c1` [Compound A26], for which, on Met kinase, the IC50 lay within 10 to 1000 nM.

`CCOC(=O)Nc1cccc(Cn2nc(-c3cc(F)c(OCCCOC)c(F)c3)ccc2=O)c1` [Compound A37] yielded an IC50 against Met kinase of 10 to 1000 nM.

Turning to `CCOC(=O)Nc1cccc(Cn2nc(-c3cc(F)c(OCCCCO)c(F)c3)ccc2=O)c1` [Compound A35], the concentration for half-maximal inhibition (IC50) against Met kinase was in the range of 10 to 1000 nM.

Take `CCOC(=O)Nc1cccc(Cn2nc(-c3ccc(OC4CCCN(CC)C4)cc3)ccc2=O)c1` (stereo not shown) [Compound A15]: on Met kinase, the IC50 lay within 10 to 1000 nM.

As for `CCOC(=O)Nc1cccc(Cn2nc(-c3ccc(OCCCOC)cc3)ccc2=O)c1` [Compound A11], the half-inhibitory concentration (IC50) against Met kinase was in the range of 10 to 1000 nM.

`CCOC(=O)Nc1cccc(Cn2nc(-c3cccc(OCCCCN)c3)ccc2=O)c1` [Compound A49]: at Met kinase, the half-inhibitory concentration (IC50) was in the range of 10 to 1000 nM.

`CCOC(=O)Nc1cccc(Cn2nc(-c3cc(F)c(OCCCNC)c(F)c3)ccc2=O)c1` [Compound A29a] had an IC50 against Met kinase of 10 to 1000 nM.

In turn, `CCOC(=O)Nc1cccc(Cn2nc(-c3ccc(OCCCCNC(=O)OC(C)(C)C)cc3)ccc2=O)c1` [Compound A12] returned a concentration for half-maximal inhibition (IC50) against Met kinase of 10 to 1000 nM.

Turning to `CCOC(=O)Nc1cccc(Cn2nc(-c3cc(F)c(OCCCO)c(F)c3)ccc2=O)c1` [Compound A38], at Met kinase, the half-maximal inhibitory concentration (IC50) lay in the range of 10 to 1000 nM.

The compound `CCOC(=O)Nc1cccc(Cn2nc(-c3cc(F)c(OCCCN4CCCC4)c(F)c3)ccc2=O)c1` [Compound A43] had an IC50 at Met kinase of 10 to 1000 nM.

`CN(C)CCCOc1c(F)cc(-c2ccc(=O)n(Cc3ccc4[nH]c(=O)[nH]c4c3)n2)cc1F` [Compound A55, 5-{3-[4-(3-dimethylaminopropoxy)-3,5-difluorophenyl]-6-oxo-6H-pyridazin-1-ylmethyl}-1,3-dihydrobenzimidazol-2-one] gave a half-inhibitory concentration (IC50) against Met kinase of 10 to 1000 nM.

In turn, `CCOC(=O)Nc1cccc(Cn2nc(-c3cccc(OCCN4CCOCC4)c3)ccc2=O)c1` [Compound A24] yielded a concentration for half-maximal inhibition (IC50) at Met kinase of 10 to 1000 nM.

In turn, `CCOC(=O)Nc1cccc(Cn2nc(-c3ccc(OCCCCCNC(=O)OC(C)(C)C)cc3)ccc2=O)c1` [Compound A4] showed a 50% inhibitory concentration (IC50) against Met kinase of 10 to 1000 nM.

For the compound `CCOC(=O)Nc1cccc(Cn2nc(-c3cc(F)c(OCCCCCN)c(F)c3)ccc2=O)c1` [Compound A52], at Met kinase, the IC50 lay within 10 to 1000 nM.

At Met kinase, `CCOC(=O)Nc1cccc(Cn2nc(-c3cc(F)c(OCCCN(C)C)c(F)c3)ccc2=O)c1` [Compound A27] gave a 50% inhibitory concentration (IC50) of 10 to 1000 nM.

Compound `CCOC(=O)Nc1cccc(Cn2nc(-c3cccc(OCCCCNC(=O)OC(C)(C)C)c3)ccc2=O)c1` [Compound A23] returned a half-inhibitory concentration (IC50) on Met kinase of 10 to 1000 nM.

On Met kinase, `CCOC(=O)Nc1cccc(Cn2nc(-c3ccc(OCCCO)cc3)ccc2=O)c1` [Compound A2] gave a half-inhibitory concentration (IC50) of 10 to 1000 nM.

Consider `CCOC(=O)Nc1cccc(Cn2nc(-c3ccc(OCCCCCN)cc3)ccc2=O)c1` [Compound A44], for which the half-maximal inhibitory concentration (IC50) against Met kinase is 10 to 1000 nM.

As for `CCOC(=O)Nc1cccc(Cn2nc(-c3ccc(OCC(C)CN4CCOCC4)cc3)ccc2=O)c1` (stereo not shown) [Compound A18], the 50% inhibitory concentration (IC50) on Met kinase was 10 to 1000 nM.

For the compound `CCOC(=O)Nc1cccc(Cn2nc(-c3cc(F)c(OCCCN)c(F)c3)ccc2=O)c1` [Compound A53], at Met kinase, the IC50 is 10 to 1000 nM.

For the compound `CCOC(=O)Nc1cccc(Cn2nc(-c3cc(F)c(OCCN)c(F)c3)ccc2=O)c1` [Compound A45], on Met kinase, the half-inhibitory concentration (IC50) lay within 10 to 1000 nM.

`CCOC(=O)Nc1cccc(Cn2nc(-c3ccc(OCCCCN)cc3)ccc2=O)c1` [Compound A50]: the IC50 on Met kinase lay within 10 to 1000 nM.

For the compound `CCOC(=O)Nc1cccc(Cn2nc(-c3ccc(OCCC4CCCN4C)cc3)ccc2=O)c1` (stereo not shown) [Compound A17], the IC50 on Met kinase fell in the range of 10 to 1000 nM.

With `CCOC(=O)Nc1cccc(Cn2nc(-c3ccc(OCC(=O)N(C)C)cc3)ccc2=O)c1` [Compound A14], the IC50 at Met kinase is 10 to 1000 nM.

Consider `CCOC(=O)Nc1cccc(Cn2nc(-c3cccc(OCCOC)c3)ccc2=O)c1` [Compound A21], for which the half-inhibitory concentration (IC50) at Met kinase lay in the range of 10 to 1000 nM.

Compound `CCOC(=O)Nc1cccc(Cn2nc(-c3ccc(OCCN4CCOCC4)cc3)ccc2=O)c1` [Compound A1] showed an IC50 at Met kinase of 10 to 1000 nM.

Compound `CCOC(=O)Nc1cccc(Cn2nc(-c3cccc(OCCCCOC)c3)ccc2=O)c1` [Compound A20] showed an IC50 at Met kinase of 10 to 1000 nM.

`CCOC(=O)Nc1cccc(Cn2nc(-c3ccc(OCCCCO)cc3)ccc2=O)c1` [Compound A10] showed a half-maximal inhibitory concentration (IC50) against Met kinase of 10 to 1000 nM.

Turning to `CCOC(=O)Nc1cccc(Cn2nc(-c3cc(F)c(OCCOC)c(F)c3)ccc2=O)c1` [Compound A34], the half-inhibitory concentration (IC50) against Met kinase lay within 10 to 1000 nM.

Regarding `CCOC(=O)Nc1cccc(Cn2nc(-c3ccc(OCCN(C(C)C)C(C)C)cc3)ccc2=O)c1` [Compound A13], at Met kinase, the half-inhibitory concentration (IC50) lay within 10 to 1000 nM.

For `CCOC(=O)Nc1cccc(Cn2nc(-c3cccc(OCCCO)c3)ccc2=O)c1` [Compound A19], the half-inhibitory concentration (IC50) at Met kinase fell in the range of 10 to 1000 nM.

As for `CCOC(=O)Nc1cccc(Cn2nc(-c3ccc(OCCN)cc3)ccc2=O)c1` [Compound A48], the half-inhibitory concentration (IC50) against Met kinase lay in the range of 10 to 1000 nM.

Take `CCOC(=O)Nc1cccc(Cn2nc(-c3ccc(OCCOC)cc3)ccc2=O)c1` [Compound A5]: the half-inhibitory concentration (IC50) against Met kinase was in the range of 10 to 1000 nM.

Consider `CCOC(=O)Nc1cccc(Cn2nc(-c3cccc(OCCCCO)c3)ccc2=O)c1` [Compound A22], for which the IC50 on Met kinase lay within 10 to 1000 nM.

`CN1CCN(CCCOc2c(F)cc(-c3ccc(=O)n(Cc4ccc5[nH]c(=O)[nH]c5c4)n3)cc2F)CC1` [Compound A56, 5-(3-{3,5-difluoro-4-[3-(4-methylpiperazin-1-yl)propoxy]-phenyl}-6-oxo-6H-pyridazin-1-ylmethyl)-1,3-dihydrobenzimidazol-2-one]: in the test with TPR-Met/NIH3T3 cells, the antitumoural action result is recorded as “significant antitumoural action”. In addition, on Met kinase, the IC50 lay within 10 to 1000 nM.

`CCOC(=O)Nc1cccc(Cn2nc(-c3ccc(OCCNC(=O)OC(C)(C)C)cc3)ccc2=O)c1` [Compound A6] returned a 50% inhibitory concentration (IC50) against Met kinase of 10 to 1000 nM.

Regarding `CCOC(=O)Nc1cccc(Cn2nc(-c3cc(F)c(OCCCCCNC(=O)OC(C)(C)C)c(F)c3)ccc2=O)c1` [Compound A31], the 50% inhibitory concentration (IC50) on Met kinase was 10 to 1000 nM.

With `CCOC(=O)Nc1cccc(Cn2nc(-c3ccc(OCCCN4CCCCC4)cc3)ccc2=O)c1` [Compound A16], at Met kinase, the IC50 was 10 to 1000 nM.

The compound `CCOC(=O)Nc1cccc(Cn2nc(-c3ccc(OCCN(C)C)cc3)ccc2=O)c1` [Compound A8] had an IC50 at Met kinase of 10 to 1000 nM.

Compound `CCOC(=O)Nc1cccc(Cn2nc(-c3cc(F)c(OCCN(C)C)c(F)c3)ccc2=O)c1` [Compound A33] came in with a 50% inhibitory concentration (IC50) against Met kinase of 10 to 1000 nM.

On to `CCOC(=O)Nc1cccc(Cn2nc(-c3ccc(OCCCCOC)cc3)ccc2=O)c1` [Compound A7], for which the IC50 at Met kinase fell in the range of 10 to 1000 nM.

At Met kinase, `CCOC(=O)Nc1cccc(Cn2nc(-c3cccc(OCCCOC)c3)ccc2=O)c1` [Compound A25] showed an IC50 of 10 to 1000 nM.

For the compound `CCOC(=O)Nc1cccc(Cn2nc(-c3ccc(OCCCN(C)C)cc3)ccc2=O)c1` [Compound A3], the 50% inhibitory concentration (IC50) on Met kinase lay within 10 to 1000 nM.

As to `CCOC(=O)Nc1cccc(Cn2nc(-c3cc(F)c(OCCCN4CCOCC4=O)c(F)c3)ccc2=O)c1` [Compound A28], the concentration for half-maximal inhibition (IC50) against Met kinase lay in the range of 10 to 1000 nM.
